Reference: paper PMC8742467, “Therapeutical interference with the epigenetic landscape of germ cell tumors: a comparative drug study and new mechanistical insights” (Clinical Epigenetics, 2022)

Assays:
[1] = tested on: GCT cells; experiment: Flow cytometry cell cycle (PI), GCT cells; type: cell-based, Human; conditions: EC50, 16 h
Procedure: For Annexin V/PI staining, cells were washed with Annexin V Binding Buffer before being resuspended in 70 µl Annexin V Binding Buffer and 2.5 μl Annexin V FITC-conjugate (both Miltenyi Biotec, Bergisch Gladbach, Germany) and 15 µg PI (Sigma-Aldrich, Taufkirchen, Germany) and incubated in the dark at room temperature for 15 min. 500 µl of Annexin V Binding Buffer was added before measurement. For the cell cycle analysis, cells were washed with PBS (phosphate buffered saline), fixed by ice cold 70% ethanol and stained with 2 µg/ml PI and 200 µg/ml RNaseA (Quiagen, Hilden, Germany 100 mg/ml) in PBS shortly before every measurement. At least 5 × 10^4 cells were counted and analyzed using the MACSQuant software v 2.13.0.

[2] = tested on: JAR (CC); experiment: XTT cell viability assay, JAR; type: cell-based; conditions: Homo sapiens, after 48 h, n = 4, read-out: EC50 colour/symbol code, CC JAR
Procedure: (§1) The […] (XTT) assays were performed as described previously. In summary, for GCT and fibroblast cell lines 5 × 10^3 cells (3 × 10^3 for UC, PCa and RCC cell lines) per 96-well were seeded and different drug concentrations (see Additional file 2: Fig. S2, Additional file 3: Fig. S3) or corresponding solvents were added to the cells the following day. For drug details see Additional file 12: Table S2 C. Each condition was analyzed in four technical replicates and EC50 values were calculated by GraphPad Prism v8.

[3] = tested on: renal cell carcinoma (RCC) cell lines; experiment: XTT cell viability assay, RCC cell lines; type: cell-based; conditions: Homo sapiens; mean of three cell lines, 48 h
Procedure: as §1

[4] = tested on: DNA methylation (5mC, 5hmC) in 2102EP cells; experiment: DNA slot blot (5mC, 5hmC); type: cell-based, Human; conditions: 24 h, solvent control set to 100%
[5] = tested on: SE (seminoma) cell lines; experiment: XTT cell viability assay, mean per entity SE; type: cell-based; conditions: Homo sapiens, after 48 h
Procedure: as §1

[6] = tested on: histone modifications in 2102EP cells; experiment: Mass spectrometry analysis of histone modifications (Mod Spec); type: cell-based, Human
Method in brief: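 2102EP cells were treated for 16 h with EC50 concentrations of Quisinostat, JIB-04, Chaetocin, MZ-1, LP99, PRT4165 or GSK343, with DMSO as solvent control. After trypsin harvest, histones were extracted and analysed by mass spectrometry. Raw data were converted to z-scores.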

[7] = tested on: fibroblasts (MPAF, HVHF2); experiment: XTT cell viability assay, fibroblasts; type: cell-based; conditions: Homo sapiens, Fibroblast; after 48 h, mean
Procedure: as §1

[8] = tested on: EC-R (cisplatin-resistant embryonal carcinoma subclones); experiment: XTT cell viability assay, mean per entity EC-R; type: cell-based; conditions: Homo sapiens, after 48 h
Procedure: as §1

[9] = tested on: 2102EP-R; experiment: Flow cytometry apoptosis (Annexin V/PI), 2102EP-R; type: cell-based, Human; conditions: EC50, 16 h, compared to the parental cell line
[10] = 2102EP cells, Mod Spec raw data
[11] = 2102EP, EC50, 16 h, vs solvent control

CN1C(=O)[C@@]23C[C@]4([C@]56C[C@@]78SS[C@@](CO)(C(=O)N7[C@H]5Nc5ccccc56)N(C)C8=O)c5ccccc5N[C@@H]4N2C(=O)[C@]1(CO)SS3 [Chaetocin]
cell cycle phase accumulation in GCT cells [1]: accumulation in the G2/M phase | EC50 [2]: < 1000 nM | EC50 [3]: 156 nM | 5mC levels compared to solvent control [4]: 85% | EC50 [5]: 122 nM | H1.4: K25AC, % of peptide pool [6, 10]: 0.02988% | H1.4: K25ME1, % of peptide pool [6, 10]: 2.019% | H1.4: K25ME2, % of peptide pool [6, 10]: 0.1186% | H1.4: K25ME3, % of peptide pool [6, 10]: 0.02061% | H1.4: K25UN, % of peptide pool [6, 10]: 97.812% | H2A1: K13AC, % of peptide pool [6, 10]: 0.0146% | H2A1: K13UN, % of peptide pool [6, 10]: 99.9854% | H2A1: K15AC, % of peptide pool [6, 10]: 0.01159% | H2A1: K15UB, % of peptide pool [6, 10]: 0% | H2A1: K15UN, % of peptide pool [6, 10]: 99.9884% | H2A3: K13AC, % of peptide pool [6, 10]: 0.04893% | H2A3: K13UN, % of peptide pool [6, 10]: 99.9511% | H2A3: K15AC, % of peptide pool [6, 10]: 0.07659% | H2A3: K15UB, % of peptide pool [6, 10]: 0% | H2A3: K15UN, % of peptide pool [6, 10]: 99.9234% | H2A: K5AC, % of peptide pool [6, 10]: 14.3188% | H2A: K5UN, % of peptide pool [6, 10]: 85.6812% | H2A: K9AC, % of peptide pool [6, 10]: 1.675% | H2A: K9UN, % of peptide pool [6, 10]: 98.3248% | H2A: K36AC, % of peptide pool [6, 10]: 0.05938% | H2A: K36UN, % of peptide pool [6, 10]: 99.9406% | H3: K9AC, % of peptide pool [6, 10]: 0.8662% | H3: K9ME1, % of peptide pool [6, 10]: 34.1794% | H3: K9ME2, % of peptide pool [6, 10]: 24.6408% | H3: K9ME3, % of peptide pool [6, 10]: 2.426% | H3: K9UN, % of peptide pool [6, 10]: 37.8878% | H3: K14AC, % of peptide pool [6, 10]: 29.886% | H3: K14UN, % of peptide pool [6, 10]: 70.114% | H3: K18AC, % of peptide pool [6, 10]: 12.8748% | H3: K18ME1, % of peptide pool [6, 10]: 0.1543% | H3: K18UN, % of peptide pool [6, 10]: 86.9709% | H3: K23AC, % of peptide pool [6, 10]: 19.2205% | H3: K23ME1, % of peptide pool [6, 10]: 0.03585% | H3: K23UN, % of peptide pool [6, 10]: 80.7437% | H3: K56AC, % of peptide pool [6, 10]: 0.2394% | H3: K56ME1, % of peptide pool [6, 10]: 0.9888% | H3: K56UN, % of peptide pool [6, 10]: 98.7718% | H3: K64AC, % of peptide pool [6, 10]: 0.03741% | H3: K64UN, % of peptide pool [6, 10]: 99.9626% | H3: K79AC, % of peptide pool [6, 10]: 1.813% | H3: K79ME1, % of peptide pool [6, 10]: 15.4225% | H3: K79ME2, % of peptide pool [6, 10]: 5.182% | H3: K79ME3, % of peptide pool [6, 10]: 17.8629% | H3: K79UN, % of peptide pool [6, 10]: 59.719% | H3: K122AC, % of peptide pool [6, 10]: 0.1813% | H3: K122UN, % of peptide pool [6, 10]: 99.8187% | H3: Q19ME1, % of peptide pool [6, 10]: 0.03077% | H3: Q19UN, % of peptide pool [6, 10]: 99.9692% | H3: Q55ME1, % of peptide pool [6, 10]: 0.2687% | H3: Q55UN, % of peptide pool [6, 10]: 99.7313% | H3: R42ME2, % of peptide pool [6, 10]: 2.246% | H3: R42UN, % of peptide pool [6, 10]: 97.7541% | H3: R49ME2, % of peptide pool [6, 10]: 6.84% | H3: R49UN, % of peptide pool [6, 10]: 93.1597% | H3R2UN: K4AC, % of peptide pool [6, 10]: 0.1823% | H3R2UN: K4ME1, % of peptide pool [6, 10]: 17.5028% | H3R2UN: K4ME2, % of peptide pool [6, 10]: 0.3386% | H3R2UN: K4ME3, % of peptide pool [6, 10]: 0.1482% | H3R2UN: K4UN, % of peptide pool [6, 10]: 81.8281% | H3R2UN: Q5ME1, % of peptide pool [6, 10]: 0.09687% | H3R2UN: Q5UN, % of peptide pool [6, 10]: 99.9031% | H3.1: K27AC, % of peptide pool [6, 10]: 2.462% | H3.1: K27ME1, % of peptide pool [6, 10]: 46.5828% | H3.1: K27ME2, % of peptide pool [6, 10]: 19.949% | H3.1: K27ME3, % of peptide pool [6, 10]: 2.906% | H3.1: K27UN, % of peptide pool [6, 10]: 28.0999% | H3.1: K36AC, % of peptide pool [6, 10]: 0.3566% | H3.1: K36ME1, % of peptide pool [6, 10]: 14.5986% | H3.1: K36ME2, % of peptide pool [6, 10]: 44.4208% | H3.1: K36ME3, % of peptide pool [6, 10]: 21.3142% | H3.1: K36UN, % of peptide pool [6, 10]: 19.3097% | H3.3: K27AC, % of peptide pool [6, 10]: 5.581% | H3.3: K27M, % of peptide pool [6, 10]: 0% | H3.3: K27ME1, % of peptide pool [6, 10]: 45.9713% | H3.3: K27ME2, % of peptide pool [6, 10]: 14.9979% | H3.3: K27ME3, % of peptide pool [6, 10]: 5.393% | H3.3: K27UN, % of peptide pool [6, 10]: 28.0564% | H3.3: K36AC, % of peptide pool [6, 10]: 3.238% | H3.3: K36ME1, % of peptide pool [6, 10]: 13.4078% | H3.3: K36ME2, % of peptide pool [6, 10]: 46.3675% | H3.3: K36ME3, % of peptide pool [6, 10]: 22.3154% | H3.3: K36UN, % of peptide pool [6, 10]: 14.6709% | H4: K5AC, % of peptide pool [6, 10]: 7.567% | H4: K5UN, % of peptide pool [6, 10]: 92.4335% | H4: K8AC, % of peptide pool [6, 10]: 11.8437% | H4: K8UN, % of peptide pool [6, 10]: 88.1563% | H4: K12AC, % of peptide pool ([6]; 2102EP cells, Mod Spec raw data, histone H4 K12 acetylated): 6.89 % of peptide pool | H4: K12UN, % of peptide pool ([6]; 2102EP cells, Mod Spec raw data, histone H4 K12 unmodified): 93.1103 % of peptide pool | H4: K16AC, % of peptide pool ([6]; 2102EP cells, Mod Spec raw data, histone H4 K16 acetylated): 48.815 % of peptide pool | H4: K16UN, % of peptide pool ([6]; 2102EP cells, Mod Spec raw data, histone H4 K16 unmodified): 51.185 % of peptide pool | H4: K20AC, % of peptide pool ([6]; 2102EP cells, Mod Spec raw data, histone H4 K20 acetylated): 23.7533 % of peptide pool | H4: K20ME2, % of peptide pool ([6]; 2102EP cells, Mod Spec raw data, histone H4 K20 dimethylated): 42.9015 % of peptide pool | H4: K20ME1, % of peptide pool ([6]; 2102EP cells, Mod Spec raw data, histone H4 K20 monomethylated): 5.498 % of peptide pool | H4: K20ME3, % of peptide pool ([6]; 2102EP cells, Mod Spec raw data, histone H4 K20 trimethylated): 1.56 % of peptide pool | H4: K20UN, % of peptide pool ([6]; 2102EP cells, Mod Spec raw data, histone H4 K20 unmodified): 26.2873 % of peptide pool | change of histone modifications of the expected mode of action (Mod Spec) [6, 11]: reduction of H3K9me2/me3 | off-target changes of histone modifications (Mod Spec) [6, 11]: increase of H4K20ac | EC50 [7]: 138 nM | EC50 [8]: 161 nM | apoptosis induction in 2102EP-R [9]: did not induce apoptosis
